From patent publication US20080031982A1 (Metaproteomics, LLC, priority 2006, published 2008)

Tests used:
Assay in all cases: KinaseProfiler Assay
ErbB4 = ErbB4 (Homo sapiens, UniProt Q15303)
IGF-1R = IGF-1R (Homo sapiens, UniProt P08069)
IKKβ = biological target: T1, IKKβ (Homo sapiens, UniProt O14920)
T1 sequence (O14920 1-756): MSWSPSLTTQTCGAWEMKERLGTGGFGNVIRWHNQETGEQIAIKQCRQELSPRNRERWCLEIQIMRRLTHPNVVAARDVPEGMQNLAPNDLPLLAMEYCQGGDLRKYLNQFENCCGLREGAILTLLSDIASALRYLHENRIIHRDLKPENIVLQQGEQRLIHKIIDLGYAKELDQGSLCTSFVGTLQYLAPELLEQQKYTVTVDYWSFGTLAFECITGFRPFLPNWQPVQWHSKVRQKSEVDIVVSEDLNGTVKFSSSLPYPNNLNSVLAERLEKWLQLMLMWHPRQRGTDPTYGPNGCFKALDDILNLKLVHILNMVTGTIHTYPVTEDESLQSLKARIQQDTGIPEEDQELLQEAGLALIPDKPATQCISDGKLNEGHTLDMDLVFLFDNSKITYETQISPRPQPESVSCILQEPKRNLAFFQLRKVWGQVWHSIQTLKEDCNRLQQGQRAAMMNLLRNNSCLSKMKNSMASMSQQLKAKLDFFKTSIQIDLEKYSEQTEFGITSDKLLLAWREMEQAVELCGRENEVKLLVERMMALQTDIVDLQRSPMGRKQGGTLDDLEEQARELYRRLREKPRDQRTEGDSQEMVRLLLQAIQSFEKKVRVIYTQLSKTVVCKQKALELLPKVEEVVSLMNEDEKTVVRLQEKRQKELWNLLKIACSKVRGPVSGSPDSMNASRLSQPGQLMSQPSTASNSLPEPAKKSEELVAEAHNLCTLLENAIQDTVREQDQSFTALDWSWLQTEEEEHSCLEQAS

MINK = MINK (Homo sapiens, UniProt Q8N4C8)
MSSK1 = MSSK1 (Homo sapiens, UniProt Q9UPE1)
p70S6K = p70S6K (Homo sapiens, UniProt P23443)
PKBβ = PKBβ (Homo sapiens, UniProt P31751)
PKCβII = PKCβII (Homo sapiens, UniProt P05771)
Syk = Syk (Homo sapiens, UniProt P43405)
TBK1 = biological target: T2, TBK1 (Homo sapiens, UniProt Q9UHD2)
T2 sequence (Q9UHD2 1-729): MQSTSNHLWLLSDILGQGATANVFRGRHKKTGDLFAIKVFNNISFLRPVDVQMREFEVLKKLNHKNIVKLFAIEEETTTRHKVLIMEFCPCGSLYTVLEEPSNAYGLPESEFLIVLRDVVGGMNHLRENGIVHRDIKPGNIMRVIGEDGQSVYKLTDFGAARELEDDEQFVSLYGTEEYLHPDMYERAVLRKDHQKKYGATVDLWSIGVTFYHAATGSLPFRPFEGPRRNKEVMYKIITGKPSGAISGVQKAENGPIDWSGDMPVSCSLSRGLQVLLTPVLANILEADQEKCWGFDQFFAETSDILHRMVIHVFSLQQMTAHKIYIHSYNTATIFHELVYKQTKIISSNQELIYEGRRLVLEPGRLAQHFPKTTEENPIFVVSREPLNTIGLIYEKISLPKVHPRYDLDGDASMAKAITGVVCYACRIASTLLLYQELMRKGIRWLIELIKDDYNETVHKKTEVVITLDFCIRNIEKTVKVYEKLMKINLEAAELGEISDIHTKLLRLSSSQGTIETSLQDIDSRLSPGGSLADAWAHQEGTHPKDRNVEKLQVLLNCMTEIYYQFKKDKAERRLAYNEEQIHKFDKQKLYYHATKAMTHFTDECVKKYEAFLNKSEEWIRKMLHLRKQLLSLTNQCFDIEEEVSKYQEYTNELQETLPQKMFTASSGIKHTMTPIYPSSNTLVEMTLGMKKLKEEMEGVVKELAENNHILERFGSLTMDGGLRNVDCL

TrkB = TrkB (Homo sapiens, UniProt Q16620)
ZIPK = ZIPK (Homo sapiens, UniProt O43293)
Chain of ZIPK (O43293 whole entry): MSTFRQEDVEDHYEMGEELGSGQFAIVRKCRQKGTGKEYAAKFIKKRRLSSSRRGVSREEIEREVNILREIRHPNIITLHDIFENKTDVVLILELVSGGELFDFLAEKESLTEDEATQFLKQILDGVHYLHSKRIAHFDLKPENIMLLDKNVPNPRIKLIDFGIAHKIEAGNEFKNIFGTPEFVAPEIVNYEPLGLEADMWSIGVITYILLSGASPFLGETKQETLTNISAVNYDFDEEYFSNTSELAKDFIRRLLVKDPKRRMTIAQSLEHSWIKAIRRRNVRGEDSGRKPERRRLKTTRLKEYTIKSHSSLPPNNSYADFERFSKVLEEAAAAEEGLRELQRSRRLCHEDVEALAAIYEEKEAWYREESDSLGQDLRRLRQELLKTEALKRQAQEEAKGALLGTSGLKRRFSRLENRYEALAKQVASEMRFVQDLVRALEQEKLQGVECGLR

Chain of ErbB4 (Q15303 26-1308): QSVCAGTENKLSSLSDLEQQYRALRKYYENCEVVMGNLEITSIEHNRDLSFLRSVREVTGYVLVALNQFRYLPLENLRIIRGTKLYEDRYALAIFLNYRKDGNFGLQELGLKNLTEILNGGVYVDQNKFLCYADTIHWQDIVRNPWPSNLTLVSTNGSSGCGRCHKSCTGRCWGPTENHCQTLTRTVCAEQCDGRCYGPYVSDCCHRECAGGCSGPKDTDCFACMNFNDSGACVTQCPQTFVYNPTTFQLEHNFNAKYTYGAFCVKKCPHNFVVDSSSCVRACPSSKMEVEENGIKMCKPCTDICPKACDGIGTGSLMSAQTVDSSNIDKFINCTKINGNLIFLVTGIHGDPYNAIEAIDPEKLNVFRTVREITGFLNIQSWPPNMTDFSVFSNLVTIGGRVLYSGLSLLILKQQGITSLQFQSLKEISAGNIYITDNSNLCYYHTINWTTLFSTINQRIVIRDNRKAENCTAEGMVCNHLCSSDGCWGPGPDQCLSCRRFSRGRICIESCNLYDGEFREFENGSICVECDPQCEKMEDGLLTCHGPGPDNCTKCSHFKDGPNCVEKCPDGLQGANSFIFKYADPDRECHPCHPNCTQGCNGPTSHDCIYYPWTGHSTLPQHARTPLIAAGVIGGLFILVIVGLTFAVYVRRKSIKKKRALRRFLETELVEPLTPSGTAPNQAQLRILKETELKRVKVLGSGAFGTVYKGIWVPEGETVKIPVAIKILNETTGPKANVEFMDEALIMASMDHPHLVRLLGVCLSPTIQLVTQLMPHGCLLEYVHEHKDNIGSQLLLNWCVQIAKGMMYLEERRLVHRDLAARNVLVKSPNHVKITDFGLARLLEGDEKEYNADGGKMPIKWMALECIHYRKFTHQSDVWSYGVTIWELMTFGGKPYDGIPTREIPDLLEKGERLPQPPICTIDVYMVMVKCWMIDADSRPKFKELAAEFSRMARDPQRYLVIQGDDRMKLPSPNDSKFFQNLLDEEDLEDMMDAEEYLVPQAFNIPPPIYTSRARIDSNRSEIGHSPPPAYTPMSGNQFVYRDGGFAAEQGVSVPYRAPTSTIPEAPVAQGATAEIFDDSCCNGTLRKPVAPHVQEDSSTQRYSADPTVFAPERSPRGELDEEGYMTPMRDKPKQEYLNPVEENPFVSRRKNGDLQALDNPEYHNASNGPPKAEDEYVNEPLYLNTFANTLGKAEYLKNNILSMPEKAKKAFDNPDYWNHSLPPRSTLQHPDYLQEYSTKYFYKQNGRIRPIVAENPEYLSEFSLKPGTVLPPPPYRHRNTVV
Chain of IGF-1R (P08069 31-1367): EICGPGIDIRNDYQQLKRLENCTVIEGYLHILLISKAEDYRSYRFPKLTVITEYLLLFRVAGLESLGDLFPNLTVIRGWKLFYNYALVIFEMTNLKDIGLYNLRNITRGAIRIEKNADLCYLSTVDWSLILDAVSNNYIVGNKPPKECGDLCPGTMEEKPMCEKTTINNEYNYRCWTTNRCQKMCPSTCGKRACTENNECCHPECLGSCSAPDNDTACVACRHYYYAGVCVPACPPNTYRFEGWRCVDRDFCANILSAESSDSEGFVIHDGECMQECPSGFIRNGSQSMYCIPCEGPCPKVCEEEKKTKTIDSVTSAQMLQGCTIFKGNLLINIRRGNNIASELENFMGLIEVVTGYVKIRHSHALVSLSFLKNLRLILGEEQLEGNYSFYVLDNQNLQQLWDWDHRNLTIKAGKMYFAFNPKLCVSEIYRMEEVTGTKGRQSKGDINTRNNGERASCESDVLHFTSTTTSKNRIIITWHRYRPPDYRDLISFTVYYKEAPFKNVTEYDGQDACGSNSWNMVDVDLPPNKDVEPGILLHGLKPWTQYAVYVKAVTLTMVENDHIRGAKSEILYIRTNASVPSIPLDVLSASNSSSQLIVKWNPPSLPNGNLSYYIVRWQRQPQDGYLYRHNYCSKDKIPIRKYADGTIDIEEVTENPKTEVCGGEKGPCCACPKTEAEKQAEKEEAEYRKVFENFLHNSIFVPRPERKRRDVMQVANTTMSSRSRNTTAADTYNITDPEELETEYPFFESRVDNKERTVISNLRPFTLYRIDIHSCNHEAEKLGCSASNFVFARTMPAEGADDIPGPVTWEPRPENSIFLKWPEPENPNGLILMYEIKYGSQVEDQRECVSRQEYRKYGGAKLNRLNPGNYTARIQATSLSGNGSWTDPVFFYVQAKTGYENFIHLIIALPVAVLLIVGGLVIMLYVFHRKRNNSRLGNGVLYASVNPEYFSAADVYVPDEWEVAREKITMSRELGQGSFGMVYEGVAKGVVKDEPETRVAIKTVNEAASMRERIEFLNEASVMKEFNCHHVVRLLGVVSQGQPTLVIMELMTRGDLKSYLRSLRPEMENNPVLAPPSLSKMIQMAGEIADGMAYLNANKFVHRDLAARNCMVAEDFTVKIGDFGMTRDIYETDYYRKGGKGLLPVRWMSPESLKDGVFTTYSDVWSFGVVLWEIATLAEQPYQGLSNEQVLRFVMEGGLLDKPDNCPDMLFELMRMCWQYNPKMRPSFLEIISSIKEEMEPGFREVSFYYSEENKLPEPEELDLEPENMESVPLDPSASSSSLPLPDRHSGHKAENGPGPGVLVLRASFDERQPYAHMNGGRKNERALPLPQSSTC
Chain of MINK (Q8N4C8 whole entry): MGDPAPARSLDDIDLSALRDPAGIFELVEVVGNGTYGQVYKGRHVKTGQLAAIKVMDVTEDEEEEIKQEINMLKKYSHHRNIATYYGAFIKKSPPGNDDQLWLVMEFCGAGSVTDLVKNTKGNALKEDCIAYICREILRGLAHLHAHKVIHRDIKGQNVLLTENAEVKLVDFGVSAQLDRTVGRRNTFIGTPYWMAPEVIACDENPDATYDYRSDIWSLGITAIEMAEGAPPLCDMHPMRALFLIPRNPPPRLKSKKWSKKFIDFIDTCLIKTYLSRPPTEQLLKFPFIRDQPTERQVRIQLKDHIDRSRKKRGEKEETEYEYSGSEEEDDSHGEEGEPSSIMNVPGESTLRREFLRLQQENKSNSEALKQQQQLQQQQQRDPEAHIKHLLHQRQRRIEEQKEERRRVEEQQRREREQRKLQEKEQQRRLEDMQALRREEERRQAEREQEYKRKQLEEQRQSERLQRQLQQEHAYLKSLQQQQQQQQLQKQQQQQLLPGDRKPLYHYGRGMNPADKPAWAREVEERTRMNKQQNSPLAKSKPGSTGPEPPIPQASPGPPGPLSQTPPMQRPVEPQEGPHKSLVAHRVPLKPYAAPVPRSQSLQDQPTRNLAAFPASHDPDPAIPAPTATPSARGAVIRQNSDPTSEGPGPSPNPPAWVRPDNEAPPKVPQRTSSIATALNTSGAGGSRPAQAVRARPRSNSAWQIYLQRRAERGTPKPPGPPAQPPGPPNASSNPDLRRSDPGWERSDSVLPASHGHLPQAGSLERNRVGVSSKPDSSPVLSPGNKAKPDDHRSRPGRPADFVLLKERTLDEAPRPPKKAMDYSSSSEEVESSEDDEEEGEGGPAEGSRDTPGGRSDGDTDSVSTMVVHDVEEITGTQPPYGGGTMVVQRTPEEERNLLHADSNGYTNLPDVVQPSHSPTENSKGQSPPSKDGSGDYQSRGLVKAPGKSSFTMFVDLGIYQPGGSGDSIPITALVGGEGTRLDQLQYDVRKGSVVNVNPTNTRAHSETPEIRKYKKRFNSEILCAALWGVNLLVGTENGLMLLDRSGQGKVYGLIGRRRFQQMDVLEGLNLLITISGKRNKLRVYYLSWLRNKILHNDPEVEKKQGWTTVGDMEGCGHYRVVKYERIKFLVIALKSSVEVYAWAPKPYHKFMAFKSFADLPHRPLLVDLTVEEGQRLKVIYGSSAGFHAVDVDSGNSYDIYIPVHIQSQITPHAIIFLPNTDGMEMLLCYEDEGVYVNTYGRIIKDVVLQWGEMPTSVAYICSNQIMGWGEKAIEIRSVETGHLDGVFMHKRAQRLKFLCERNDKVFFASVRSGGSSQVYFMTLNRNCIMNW
Chain of p70S6K (P23443 whole entry): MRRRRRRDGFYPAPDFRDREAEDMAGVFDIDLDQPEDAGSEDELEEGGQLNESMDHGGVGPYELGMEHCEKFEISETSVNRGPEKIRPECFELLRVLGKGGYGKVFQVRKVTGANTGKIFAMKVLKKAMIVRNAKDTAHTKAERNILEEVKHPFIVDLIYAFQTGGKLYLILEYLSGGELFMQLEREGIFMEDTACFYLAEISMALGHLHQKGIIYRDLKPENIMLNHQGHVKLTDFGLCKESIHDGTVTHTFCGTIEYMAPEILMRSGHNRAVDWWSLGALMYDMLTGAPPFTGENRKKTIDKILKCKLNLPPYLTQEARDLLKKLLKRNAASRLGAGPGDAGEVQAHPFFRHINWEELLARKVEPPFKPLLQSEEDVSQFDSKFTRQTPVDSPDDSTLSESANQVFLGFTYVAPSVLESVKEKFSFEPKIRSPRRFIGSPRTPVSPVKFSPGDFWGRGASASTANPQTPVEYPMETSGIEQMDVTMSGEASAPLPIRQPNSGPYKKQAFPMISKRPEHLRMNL

## COc1cc(O)c(CC=C(C)C)c(O)c1C(=O)/C=C/c1ccc(O)cc1 [Xanthohumol, xanthohumol]
ErbB4; 1 ug/ml
  Kinase activity, % of Control: 132 % of Control
ErbB4; 5 ug/ml
  Kinase activity, % of Control: 85 % of Control
ErbB4; 25 ug/ml
  Kinase activity, % of Control: 52 % of Control
ErbB4; 50 ug/ml
  Kinase activity, % of Control: 27 % of Control
IGF-1R; 1 ug/ml
  Kinase activity, % of Control: 107 % of Control
IGF-1R; 25 ug/ml
  Kinase activity, % of Control: 129 % of Control
IGF-1R; 50 ug/ml
  Kinase activity, % of Control: 139 % of Control
IKKβ; 1 ug/ml
  Kinase activity, % of Control: 145 % of Control
IKKβ; 5 ug/ml
  Kinase activity, % of Control: 118 % of Control
IKKβ; 25 ug/ml
  Kinase activity, % of Control: 61 % of Control
IKKβ; 50 ug/ml
  Kinase activity, % of Control: 44 % of Control
MINK; 1 ug/ml
  Kinase activity, % of Control: 42 % of Control
MINK; 5 ug/ml
  Kinase activity, % of Control: 10 % of Control
MINK; 25 ug/ml
  Kinase activity, % of Control: 5 % of Control
MINK; 50 ug/ml
  Kinase activity, % of Control: 7 % of Control
MSSK1; 1 ug/ml
  Kinase activity, % of Control: 47 % of Control
MSSK1; 5 ug/ml
  Kinase activity, % of Control: 11 % of Control
MSSK1; 25 ug/ml
  Kinase activity, % of Control: 7 % of Control
MSSK1; 50 ug/ml
  Kinase activity, % of Control: 5 % of Control
p70S6K; 1 ug/ml
  Kinase activity, % of Control: 94 % of Control
p70S6K; 5 ug/ml
  Kinase activity, % of Control: 48 % of Control
p70S6K; 25 ug/ml
  Kinase activity, % of Control: 19 % of Control
p70S6K; 50 ug/ml
  Kinase activity, % of Control: 7 % of Control
PKBβ; 1 ug/ml
  Kinase activity, % of Control: 146 % of Control
PKBβ; 5 ug/ml
  Kinase activity, % of Control: 102 % of Control
PKBβ; 25 ug/ml
  Kinase activity, % of Control: 1 % of Control
PKBβ; 50 ug/ml
  Kinase activity, % of Control: 8 % of Control
PKCβII; 1 ug/ml
  Kinase activity, % of Control: 108 % of Control
PKCβII; 5 ug/ml
  Kinase activity, % of Control: 108 % of Control
PKCβII; 25 ug/ml
  Kinase activity, % of Control: 71 % of Control
PKCβII; 50 ug/ml
  Kinase activity, % of Control: 79 % of Control
Syk; 1 ug/ml
  Kinase activity, % of Control: 95 % of Control
Syk; 5 ug/ml
  Kinase activity, % of Control: 60 % of Control
Syk; 25 ug/ml
  Kinase activity, % of Control: 32 % of Control
Syk; 50 ug/ml
  Kinase activity, % of Control: 17 % of Control
TBK1; 1 ug/ml
  Kinase activity, % of Control: 104 % of Control
TBK1; 5 ug/ml
  Kinase activity, % of Control: 71 % of Control
TBK1; 25 ug/ml
  Kinase activity, % of Control: 45 % of Control
TBK1; 50 ug/ml
  Kinase activity, % of Control: 42 % of Control
TrkB; 1 ug/ml
  Kinase activity, % of Control: 95 % of Control
TrkB; 5 ug/ml
  Kinase activity, % of Control: 89 % of Control
TrkB; 25 ug/ml
  Kinase activity, % of Control: 58 % of Control
TrkB; 50 ug/ml
  Kinase activity, % of Control: 3 % of Control
ZIPK; 1 ug/ml
  Kinase activity, % of Control: 115 % of Control
ZIPK; 5 ug/ml
  Kinase activity, % of Control: 74 % of Control
ZIPK; 25 ug/ml
  Kinase activity, % of Control: 20 % of Control
ZIPK; 50 ug/ml
  Kinase activity, % of Control: 70 % of Control
